Reference: patent US5567704A, “R-enatiomerically pure hydroxylated xanthine compounds to treat baldness” (priority 1995, dated 1996)

How the values were obtained:
[1] = system: nu/nu mice; experiment: nude mouse hair studies, topical application; type: in vivo
Description: This example illustrates nude mouse hair studies involving topical application of CT1501R. Six to eight week old, female, nu/nu mice from Charles River Laboratories were housed at Biosupport Research Support Services (Seattle, Wash.) in autoclaved micro isolator units with hyperchlorinated autoclaved water, irradiated rodent chow and kept under a laminar flow hood. Caging was changed weekly, and water was changed twice weekly. The mice were acclimated for 5 days before beginning each study.
The first topical formulation was prepared by adding CT1501R to a heated hydrophilic ointment (USP) at a 1% concentration, and allowed to solidify.
Nude mice were painted twice daily for 16 days with the first topical formulation of CT1501R on the left flank and another compound in the same base on the right flank with sterile applicators. Mice were handled under the laminar flow hood with applicator wearing face mask and sterile gloves. After 16 days, one mouse was sacrificed by cervical dislocation and skin biopsies were taken of the treated areas of the shoulder/flank and from the non-treated area of the dorsal pelvis (rump). Specimens were placed in 10% buffered formalin solution. Biopsies were sent to a veterinary dermopathologist for histopathology. Six weeks following treatment, a second mouse was euthanatized and biopsied the same as the first. Samples were sent for histopathology.
In a second experiment, topical application of CT1501R was performed along with a commercial topical minoxidil preparation (Rogaine®, Upjohn) that is approved for a hair growth indication. Five to six week old, female, nu/nu mice from Bantin and Kingman Universal were housed at Biosupport Research Support Services (Seattle, Wash.) in autoclaved micro isolator units with hyper chlorinated autoclaved water, irradiated rodent chow and kept under a laminar flow hood. Caging was changed weekly, and water was changed twice weekly. Mice were acclimated for 7 days before beginning study.
CT1501R, and two other compounds were prepared in a topical formulation of 60% ETOH, 10% water and 30% PEG along with vehicle only. Minoxidil was purchased as the commercial preparation Rogaine® from a local pharmacy. Rogaine® is sold in the same formulation base. Mice were identified by unique tail markings specific for each test article. Two mice per group were treated with CT1501R and another compound. One mouse was treated with each of vehicle and minoxidil. The mice were handled under the laminar flow hood with the applicator wearing face mask and sterile gloves. Each mouse was treated twice daily with a separate sterile applicator to avoid contamination of the solutions or the mice. All mice were applied a strip of appropriate test article along the center line of the back from the base of the skull to the base of the tail, approximately 1.5 cm wide. After 34 days all mice were euthanatized by overdose of halothane anesthesia. Skin biopsies were taken from each of the 7 mice over the nape of the neck between the scapulas (approximate size was 1×1.5 cm). All specimens were blotted on gauze to remove blood and fluids, affixed to a cut piece of wooden tongue depressor, and placed specimen side down in separately marked containers with 10% buffered formalin. Specimens were shipped to a veterinary dermatopathologist for qualitative histopathological determinations.

[2] = system: TNF-α; experiment: mouse plasma TNF-α ELISA after endotoxin; type: in vivo; settings: for Plasma TNF: LPS + CT-1501R
Procedure: For ELISA measurements of cytokine levels in plasma, blood was collected by retro-orbital or cardiac puncture of anesthetized mice, immediately centrifuged and the EDTA plasma stored at -70° C. Particulate free plasma was thawed on ice and cytokine levels determined utilizing commercial ELISA assays with normal mouse plasma used to generate standard curves. Murine tumor necrosis factor-α and interleukin-1αkits were purchased from Genzyme (Cambridge, Mass.) and Endogen (Boston, Mass.), respectively. Each data point was an average of two ELISA measurements made from EDTA […] pooled from three mice. The data summarized in Table 3 were compiled from two independent experiments; data from Table 4 and 5 were from single experiments of three mice per data point.
Levels of TNF-α, IL-1α and IL-6 were measured in the plasma of mice as a function of time following treatment with S. abortus endotoxin. […] TNF-α levels peaked within 1 hour of treatment of endotoxin (Table 4 and FIG. 6). Treatment of the mice with CT1501R decreased the levels of TNF-α in the EDTA plasma of endotoxin treated mice at all time points measured. In particular, peak levels of TNF-α at 0.5 and 1 hour post endotoxin were decreased 2.5 and 2.6 fold respectively in the CT1501R treated mice.

[3] = system: Balb/C mice; experiment: 5-fluorouracil (5-FU) induced bone marrow suppression in mice; type: in vivo, mouse
Procedure: This example illustrates the effect of CT1501R on 5-fluorouracil (5-FU) induced bone marrow suppression in mice. We determined if CT1501R influenced the time required for hematopoietic reconstitution following cytotoxic chemotherapy in a murine model. Female Balb/C mice (VAF, Charles River Laboratories, 6-8 wks of age approximately 17.3-18.5 g) were treated with 5-FU at adose of 200 mg/kg intraperitoneally (i.p.) in experiment 1 or […] in experiment 2. CT1501R or vehicle control was given at a dose of 100 μg/kg i.p. bid starting 1 day prior to 5-FU and was continued until the last mice were sacrificed on day 13 in experiment 1 and day 15 in experiment 2. Controls included mice treated with CT1501R or vehicle without 5-FU. Mice (4 per group) were sacrificed starting 2 days after 5-FU by cardiac puncture under halothane anesthesia followed by cervical dislocation and had total white blood cell counts and differential counts performed. Platelet counts were performed using phase-contrast microscopy in duplicate. Femurs were harvested and the number of granulocyte-macrophage colony forming cells (CFU-GM) per femur were measured using a standard assay (Terry Fox Laboratories, Vancouver, British Columbia) using pokeweed mitogen spleen conditioned medium as the growth factor. Each femur was plated separately in triplicate and the mean and means for each experimental point was calculated. Standard deviations used for statistical analysis were deviations of the mean number of colonies measured for each femur.
Experiment 2 was similar to experiment 1 with the following exceptions: (1) the dose of 5-FU was decreased to 185 mg/kg; (2) daily blood draws were performed between days 10 and 15; and (3) platelet counts were performed.

[4] = first experiment, 1% in hydrophilic ointment, twice daily 16 days

SMILES: C[C@@H](O)CCCCn1c(=O)c2c(ncn2C)n(C)c1=O [CT1501R, (R)-1-(5-hydroxyhexyl)-3,7-dimethylxanthine]
- hair follicles, histopathology [1, 4]: significantly more normal appearing hair follicles than the non treated sections
- hair shafts, histopathology [1, 4]: Numerous hair shafts were seen exiting the follicles in the treated sections
- hair growth promotion compared with minoxidil ([1]; second experiment): at least as good at promoting hair growth in this model as minoxidil
- visual inspection of hair ([1]; second experiment, group of CT1501R, minoxidil and control): most "hairy"
- hair follicles, subjective histopathological examination ([1]; second experiment, topical twice daily, 34 days): greatest concentration of hair folicles
- fold decrease of plasma TNF-α ([2]; 0.5 hour post endotoxin): 2.5 fold
- fold decrease of plasma TNF-α ([2]; 1 hour post endotoxin): 2.6 fold
- Plasma TNF ([2]; 0 hours post LPS): 0 pg/mL
- Plasma TNF ([2]; 0.17 hours post LPS): 6 pg/mL
- Plasma TNF ([2]; 0.5 hours post LPS): 390 pg/mL
- Plasma TNF ([2]; 1 hour post LPS): 1728 pg/mL
- Plasma TNF ([2]; 2 hours post LPS): 940 pg/mL
- Plasma TNF ([2]; 4 hours post LPS): 400 pg/mL
- Plasma TNF ([2]; 6 hours post LPS): 350 pg/mL
- mouse survival, Kaplan-Meier plot ([3]; 5-FU treated mice, FIG. 14): improved survival
- rise in ANC and CFU-GM/femur associated with vehicle injections ([3]; animals that did not receive 5-FU): prevented both the rise in ANC and rise in CFU-GM/femur
- increase in the number of CFU-GM/femur compared to control animals ([3]; during hematopoietic recovery): approximately two-fold
- CFU-GM/femur ([3]; experiment 1, day 13, vs vehicle control and day 0 animals): significantly more CFU-GM/femur on day 13
- mean ±SD ANC ([3]; experiment 1, day 13 after 5-FU): 440±17 /mm^3
- WBC of 5-FU treated mice ([3]; experiment 1, days 6 and 10): significantly lower in vehicle treated controls than in CT1501R treated mice
- number of cells per femur ([3]; experiment 2): increased during hematopoietic recovery compared to control animals
- WBC ([3]; experiment 2, FIG. 10): significantly higher WBC's
- platelet count nadir and rate of recovery ([3]; experiment 2, FIG. 11): increased compared to vehicle control animals
- neutrophil recovery ([3]; experiment 2, FIG. 12): accelerated
- WBC and ANC ([3]; mice without 5-FU, i.p. bid): remained within 1 SD of control values
- adverse effects ([3]; mice without 5-FU, i.p. bid): no apparent adverse effects
